Reference: PubChem BioAssay AID1845217 (Molecular Pharmacology Branch, DTP, NCI, 2023)
pIC50: −log10 of the molar value.

System: VA-ES-BJ tumor spheroid viability
Experiment: Anticancer human tumor VA-ES-BJ cell line growth inhibition;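 note: spheroids exposed to compounds for seven days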;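 for viability, T/C: percent of DMSO vehicle control viability so 100% = untreated growth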
Conditions: spheroids with HUVEC and MSC; for pIC50: curve of first compound; for viability, T/C: stronger effect = lower value; active = viability on the fitted dose curve at most 10% of control; inactive = the rest
Procedure, shortened: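 Complex tumor spheroids combined malignant cells with endothelial cells and mesenchymal stem cells. DNA-damaging drugs and DNA repair inhibitors were tested alone and in combination, at half-log dilutions down from clinical Cmax (top 10 microM if Cmax unknown), 0.25% DMSO final.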

Cc1sc2c(c1C)C(c1ccc(Cl)cc1)=NC(CC(=O)Nc1ccc(O)cc1)c1nnc(C)n1-2 (stereo not given) + COc1cc2c(cc1O)CCNC21CSC2c3c(OC(C)=O)c(C)c4c(c3C(COC1=O)N1C(O)C3Cc5cc(C)c(OC)c(O)c5C(C21)N3C)OCO4
inactive: viability, T/C (second compound 30 pM, first compound 0.00949 µM) 83.6% | viability, T/C (second compound 30 pM, first compound 0.03 µM) 65.8% | viability, T/C (second compound 30 pM, first compound 0.0949 µM) 48.9% | viability, T/C (second compound 30 pM, first compound 0.3 µM) 27.4% | viability, T/C (second compound 30 pM, first compound 0.949 µM) 24% | viability, T/C (second compound 30 pM, first compound 3 µM) 17.5% | viability, T/C (second compound 94.9 pM, first compound 0.00949 µM) 79.4% | viability, T/C (second compound 94.9 pM, first compound 0.03 µM) 60.9% | viability, T/C (second compound 94.9 pM, first compound 0.0949 µM) 42.3% | viability, T/C (second compound 94.9 pM, first compound 0.3 µM) 27.3% | viability, T/C (second compound 94.9 pM, first compound 0.949 µM) 21.3% | viability, T/C (second compound 94.9 pM, first compound 3 µM) 10.5% | viability, T/C (second compound 0.0003 µM, first compound 0.00949 µM) 38.7% | viability, T/C (second compound 0.0003 µM, first compound 0.03 µM) 32.4% | viability, T/C (second compound 0.0003 µM, first compound 0.0949 µM) 23.7% | viability, T/C (second compound 0.0003 µM, first compound 0.3 µM) 13.7%
> 8.02: pIC50 (second compound 0.0003 µM) | pIC50 (second compound 0.000949 µM) | pIC50 (second compound 0.003 µM)
7.11: pIC50 (second compound 30 pM)
7.23: pIC50 (second compound 94.9 pM)
active: viability, T/C (second compound 0.0003 µM, first compound 0.949 µM) 6.9% | viability, T/C (second compound 0.0003 µM, first compound 3 µM) 2.06% | viability, T/C (second compound 0.000949 µM, first compound 0.00949 µM) 8.09% | viability, T/C (second compound 0.000949 µM, first compound 0.03 µM) 2.88% | viability, T/C (second compound 0.000949 µM, first compound 0.0949 µM) 5.43% | viability, T/C (second compound 0.000949 µM, first compound 0.3 µM) 1.01% | viability, T/C (second compound 0.000949 µM, first compound 0.949 µM) 0.08% | viability, T/C (second compound 0.000949 µM, first compound 3 µM) 0.14% | viability, T/C (second compound 0.003 µM, first compound 0.00949 µM) 1.18% | viability, T/C (second compound 0.003 µM, first compound 0.03 µM) 1.31% | viability, T/C (second compound 0.003 µM, first compound 0.0949 µM) 1.36% | viability, T/C (second compound 0.003 µM, first compound 0.3 µM) 1.87% | viability, T/C (second compound 0.003 µM, first compound 0.949 µM) 2.19% | viability, T/C (second compound 0.003 µM, first compound 3 µM) 3.69%

[2H]c1nc(C)nc([2H])c1-c1cc(NC[C@@H](C)c2cccc3c(C(=O)NC)ccnc23)ncn1 + Cn1nnc2c(C(N)=O)ncn2c1=O
< 5.00: pIC50 (second compound 1 µM) | pIC50 (second compound 3.16 µM) | pIC50 (second compound 10 µM) | pIC50 (second compound 31.6 µM) | pIC50 (second compound 100 µM)
inactive: viability, T/C (second compound 1 µM, first compound 0.0316 µM) 108% | viability, T/C (second compound 1 µM, first compound 0.1 µM) 105% | viability, T/C (second compound 1 µM, first compound 0.316 µM) 106% | viability, T/C (second compound 1 µM, first compound 1 µM) 94.7% | viability, T/C (second compound 1 µM, first compound 3.16 µM) 95.8% | viability, T/C (second compound 1 µM, first compound 10 µM) 92.5% | viability, T/C (second compound 3.16 µM, first compound 0.0316 µM) 111% | viability, T/C (second compound 3.16 µM, first compound 0.1 µM) 90.1% | viability, T/C (second compound 3.16 µM, first compound 0.316 µM) 90.2% | viability, T/C (second compound 3.16 µM, first compound 1 µM) 91.1% | viability, T/C (second compound 3.16 µM, first compound 3.16 µM) 98.3% | viability, T/C (second compound 3.16 µM, first compound 10 µM) 97% | viability, T/C (second compound 10 µM, first compound 0.0316 µM) 111% | viability, T/C (second compound 10 µM, first compound 0.1 µM) 94.6% | viability, T/C (second compound 10 µM, first compound 0.316 µM) 97.5% | viability, T/C (second compound 10 µM, first compound 1 µM) 101% | viability, T/C (second compound 10 µM, first compound 3.16 µM) 94.1% | viability, T/C (second compound 10 µM, first compound 10 µM) 95.6% | viability, T/C (second compound 31.6 µM, first compound 0.0316 µM) 114% | viability, T/C (second compound 31.6 µM, first compound 0.1 µM) 103% | viability, T/C (second compound 31.6 µM, first compound 0.316 µM) 105% | viability, T/C (second compound 31.6 µM, first compound 1 µM) 99.2% | viability, T/C (second compound 31.6 µM, first compound 3.16 µM) 89.4% | viability, T/C (second compound 31.6 µM, first compound 10 µM) 85.6% | viability, T/C (second compound 100 µM, first compound 0.0316 µM) 103% | viability, T/C (second compound 100 µM, first compound 0.1 µM) 102% | viability, T/C (second compound 100 µM, first compound 0.316 µM) 107% | viability, T/C (second compound 100 µM, first compound 1 µM) 104% | viability, T/C (second compound 100 µM, first compound 3.16 µM) 99.9% | viability, T/C (second compound 100 µM, first compound 10 µM) 96%
